pEC50: −log10 of the molar value.
test system: HBV; assay: HBV replication inhibition assay (encapsidated HBV DNA in supernatant, bDNA QuantiGene); type: cell-based; conditions: Hepatitis B virus, 144 h, HepG2.2.15 cells, supernatant at day 6, read-out: Extra HBV DNA

Structure (SMILES) | pEC50
O=C(Nc1cc(F)c(F)c(F)c1)c1ccc(F)c(SC2CCC(O)CC2)c1 (mixture of isomers) [Compound 10, (cis/trans)-4-Fluoro-3-((4-hydroxycyclohexyl)thio)-N-(3,4,5-trifluorophenyl)benzamide] | 7.05
O=C1CCCCC(Sc2cccc(C(=O)Nc3ccc(F)c(Cl)c3)c2)C1 (racemic) [Compound 38, (±)-N-(3-Chloro-4-fluorophenyl)-3-((3-oxocycloheptyl)thio)benzamide] | 5.90
O=C(Nc1ccc(F)c(Cl)c1)c1cc(NS(=O)(=O)C2CC2)ccn1 [Compound 126, N-(3-Chloro-4-fluorophenyl)-4-(cyclopropanesulfonamido)picolinamide] | 6.00
O=C(Nc1ccc(F)c(Cl)c1)c1cccc(S[C@@H]2CCCC[C@@H](O)C2)c1 (racemic) [Compound 39B, (±)-N-(3-Chloro-4-fluorophenyl)-3-(((1R,3R)-3-hydroxycycloheptyl)thio)benzamide] | 5.89
O=C(Nc1ccc(F)c(Cl)c1)c1cccc(SCCCO)c1 [Compound 40, N-(3-Chloro-4-fluorophenyl)-3-((3-hydroxypropyl)thio)benzamide] | 6.12
O=C(Nc1ccc(F)c(Cl)c1)c1cccc(S[C@H]2CCCC[C@@H](O)C2)c1 (racemic) [Compound 39A, (±)-N-(3-Chloro-4-fluorophenyl)-3-(((1S,3R)-3-hydroxycycloheptyl)thio)benzamide] | 5.89

test system: HBV; assay: Inhibition of HBV replication dot-blot assay in HBV-producing hepatoma cell line; type: cell-based; conditions: Hepatitis B virus, 144 h; activity in Dot-Blot assay; HepG2-2.2.15 cells; reduction in HBV DNA levels, six days
Protocol: Compounds active in the HBV assembly assay are tested for their activity and toxicity in cellular assay. In the first anti-viral assay, the ability of compounds to inhibit HBV replication in an HBV-producing hepatoma cell line using the dot-blot method is evaluated.
(§1) Briefly, confluent monolayers of HepG2-2.2.15 cells are incubated with complete medium containing various concentrations of a test compound. Three days later, the culture medium is replaced with fresh medium containing the appropriately diluted test compound. Six days following the initial administration of the test compound, the cell culture supernatant is collected, and cell lysis is performed. The samples are applied onto Nylos membranes and DNA is immobilized to the membrane by UV cross-linking. After pre-hybridization, the HBV probe is added and the hybridization is performed overnight. The membranes are exposed to the KODAK films; antiviral activity is calculated from the reduction in HBV DNA levels (EC50). The EC50 for antiviral activity is calculated from the dose response curves of active compounds. Assay performance over time is monitored by the use of the standard positive control compounds ETV, BAY 41-4109, and HAP-1.
Selected compounds are tested for their activity and toxicity in cellular assay. In the first anti-viral assay, the ability of compounds to inhibit HBV replication in an HBV-producing hepatoma cell line using the dot-blot method is evaluated.
as §1, with “Confluent monolayers” for “Briefly, confluent monolayers”, “lysis was” for “lysis is”

Structure (SMILES) | pEC50
O=C(Nc1cc(F)c(F)c(F)c1)c1ccc(F)c(SC2CCC(O)CC2)c1 (mixture of isomers) [Compound 10, (cis/trans)-4-Fluoro-3-((4-hydroxycyclohexyl)thio)-N-(3,4,5-trifluorophenyl)benzamide] | > 5.00
COc1ccc(C(=O)Nc2ccc(F)c(F)c2)cc1SC1CCC(O)CC1 (mixture of isomers) [Compound 89, (cis/trans)-N-(3,4-Difluorophenyl)-3-((4-hydroxycyclohexyl)thio)-4-methoxybenzamide] | > 5.00
O=C(Nc1cc(F)c(F)c(F)c1)c1ccc(F)c(SCC2CCC(C(=O)O)CC2)c1 (mixture of isomers) [Compound 110, (cis/trans)-4-(((5-((3,4,5-trifluorophenyl)carbamoyl)-2-fluorophenyl)thio)methyl)cyclohexanecarboxylic acid] | > 5.00
O=C(Nc1ccc(F)c(Cl)c1)c1ccnc(NS(=O)(=O)C2CCOC2)c1 (racemic) [Compound 161, (±)-N-(3-Chloro-4-fluorophenyl)-2-(tetrahydrofuran-3-sulfonamido)isonicotinamide] | > 5.00
O=C(Nc1cc(F)c(F)c(F)c1)c1ccc(F)c(SC2CCCC2)c1 [Compound 3, 3-(Cyclopentylthio)-4-fluoro-N-(3,4,5-trifluorophenyl)benzamide] | > 5.00
O=C(Nc1ccc(F)c(Cl)c1)c1ccc(F)c(SC2CCCCCC2)c1 [Compound 52, N-(3-Chloro-4-fluorophenyl)-3-(cycloheptylthio)-4-fluorobenzamide] | > 5.00
O=C(Nc1ccc(F)c(Cl)c1)c1ccc(F)c(SC2CCC(C(=O)O)CC2)c1 (mixture of isomers) [Compound 61, (cis/trans)-4-((5-((3-Chloro-4-fluorophenyl)carbamoyl)-2-fluorophenyl)thio)cyclohexanecarboxylic acid] | > 5.00
Cc1n[nH]c(C)c1S(=O)(=O)Nc1cccc(C(=O)Nc2ccc(F)c(Cl)c2)c1 [Compound 201, N-(3-chloro-4-fluorophenyl)-3-(3,5-dimethyl-1H-pyrazole-4-sulfonamido)benzamide] | > 5.00
Cc1ccc(CS(=O)(=O)Nc2cc(C(=O)Nc3ccc(F)c(Cl)c3)ccn2)cc1 [Compound 152, N-(3-Chloro-4-fluorophenyl)-2-(p-tolylmethylsulfonamido)isonicotinamide] | > 5.00
O=C(Nc1ccc(F)c(Cl)c1)c1ccc(F)c(S[C@@H]2CCC[C@@H](O)C2)c1 (racemic) [Compound 21, (±)-N-(3-Chloro-4-fluorophenyl)-4-fluoro-3-(((1R,3R)-3-hydroxycyclohexyl)thio)benzamide] | > 5.00
O=C(O)CC1CCC(Sc2cc(C(=O)Nc3ccc(F)c(Cl)c3)ccc2F)C1 (racemic) [Compound 102, (±)-2-(3-((5-((3-Chloro-4-fluorophenyl)carbamoyl)-2-fluorophenyl)thio)cyclopentyl)acetic acid] | > 5.00
O=C(Nc1cc(F)c(F)c(F)c1)c1ccc(F)c(SC2CCC(C(=O)N3CCCCC3)CC2)c1 (mixture of isomers) [Compound 104, (cis/trans)-4-Fluoro-3-((4-(piperidine-1-carbonyl)cyclohexyl)thio)-N-(3,4,5-trifluorophenyl)benzamide] | > 5.00
O=C(Nc1ccc(F)c(Cl)c1)c1ccc(F)c(SC2CCCOC2)c1 (racemic) [Compound 64, (±)-N-(3-Chloro-4-fluorophenyl)-4-fluoro-3-((tetrahydro-2H-pyran-3-yl)thio)benzamide] | > 5.00
CC(C)S(=O)(=O)Nc1cc(C(=O)Nc2ccc(F)c(Cl)c2)ccn1 [Compound 163, N-(3-Chloro-4-fluorophenyl)-2-(1-methylethylsulfonamido)isonicotinamide] | > 5.00
O=C(Nc1ccc(F)c(Cl)c1)c1ccc(F)c(SC2CC(C(=O)O)C2)c1 (mixture of isomers) [Compound 58, (cis/trans)-3-((5-((3-Chloro-4-fluorophenyl)carbamoyl)-2-fluorophenyl)thio)cyclobutanecarboxylic acid] | > 5.00
O=C(Nc1ccc(F)c(Cl)c1)c1cccc(NS(=O)(=O)C2CCOC2)c1 (racemic) [Compound 202, (±)-N-(3-chloro-4-fluorophenyl)-3-(tetrahydrofuran-3-sulfonamido)benzamide] | > 5.00
Cc1cc(NC(=O)c2ccc(F)c(SC3CCCC3)c2)ccc1F [Compound 9, 3-(Cyclopentylthio)-4-fluoro-N-(4-fluoro-3-methylphenyl)benzamide] | > 5.00
CC(C)(C)Sc1cc(C(=O)Nc2cc(F)c(F)c(F)c2)ccc1F [Compound 5, 3-(tert-Butylthio)-4-fluoro-N-(3,4,5-trifluorophenyl)benzamide] | > 5.00
Cc1cc(NC(=O)c2ccc(F)c(NS(=O)(=O)c3ccn(C)n3)c2)ccc1F [Compound 197, 4-fluoro-N-(4-fluoro-3-methylphenyl)-3-(1-methyl-1H-pyrazole-3-sulfonamido)benzamide] | > 5.00
COc1ccc(C(=O)Nc2cc(F)c(F)c(F)c2)cc1SC1CCC(O)CC1 (mixture of isomers) [Compound 84, (cis/trans)-3-((4-Hydroxycyclohexyl)thio)-4-methoxy-N-(3,4,5-trifluorophenyl)benzamide] | > 5.00
O=C(Nc1ccc(F)c(Cl)c1)c1ccc(F)c(S[C@H]2CC[C@H](O)C2)c1 (racemic) [Compound 25, (±)-N-(3-Chloro-4-fluorophenyl)-4-fluoro-3-(((1S,3S)-3-hydroxycyclopentyl)thio)benzamide] | > 5.00
CC1(S(=O)(=O)Nc2cc(C(=O)Nc3ccc(F)c(Cl)c3)ccn2)CC1 [Compound 130, N-(3-Chloro-4-fluorophenyl)-2-(1-methylcyclopropanesulfonamido)isonicotinamide] | > 5.00
O=C(Nc1ccc(F)c(Cl)c1)c1cccc(NS(=O)(=O)CC2CCCO2)c1 (racemic) [Compound 203, (±)-N-(3-chloro-4-fluorophenyl)-3-((tetrahydrofuran-2-yl)methylsulfonamido)benzamide] | > 5.00
